According to patent publication US6555563B1, “Heteroaryl substituted amidinyl and imidazolyl compounds and methods employing same for the treatment of inflammation” (Medinox, Inc., priority 2001, dated 2003):

Columns and labels:
COX-1 = target: T1, COX-1 (Ovis aries, UniProt P05979); assay: Assay for COX-1 activity (Ovine), PGE2 formation by ELISA; assay type: biochemical; conditions: for inhibition at 0.01 µM: read-out: COX-1 10 nM (% inhibition); for inhibition at 0.01 µM / COX-1 10 nM (% inhibition): 10 nM compound; for IC50: first number of cell COX1/COX2; for inhibition at 0.05 µM: read-out: COX-1 50 nM (% inhibition); for inhibition at 0.05 µM / COX-1 50 nM (% inhibition): 50 nM compound
T1 construct: host or cells: insect cells (membranes, CHAPS-solubilized)
T1 sequence (P05979 25-600): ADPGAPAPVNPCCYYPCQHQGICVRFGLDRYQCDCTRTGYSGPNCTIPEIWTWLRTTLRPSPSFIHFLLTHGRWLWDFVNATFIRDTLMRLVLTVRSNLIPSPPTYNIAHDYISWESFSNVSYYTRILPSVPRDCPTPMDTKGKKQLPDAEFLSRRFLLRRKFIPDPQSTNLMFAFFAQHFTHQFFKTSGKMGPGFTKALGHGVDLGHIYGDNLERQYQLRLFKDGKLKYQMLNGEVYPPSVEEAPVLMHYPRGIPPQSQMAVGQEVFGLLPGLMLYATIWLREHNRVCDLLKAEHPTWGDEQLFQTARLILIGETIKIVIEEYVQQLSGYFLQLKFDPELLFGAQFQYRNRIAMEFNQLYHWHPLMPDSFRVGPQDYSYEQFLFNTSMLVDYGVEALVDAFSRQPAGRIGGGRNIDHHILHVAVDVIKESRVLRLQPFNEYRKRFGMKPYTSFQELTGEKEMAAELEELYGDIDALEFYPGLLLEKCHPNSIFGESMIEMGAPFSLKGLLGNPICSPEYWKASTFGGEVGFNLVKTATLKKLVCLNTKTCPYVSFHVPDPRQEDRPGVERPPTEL
Procedure: (§1) COX activity was assayed as PGE2 formed/μg protein/time using ELISA to detect prostaglandin release. CHAPS-solubilized insect cell membranes containing the appropriate COX enzyme were incubated in a potassium phosphate buffer (50 mM, pH 8.0) containing Tris-HCl, EDTA, phenol, and heme with the addition of arachidonic acid (10 μM). Compounds were pre-incubated with the enzyme for 5-10 minutes prior to the addition of arachidonic acid. Any reaction between the arachidonic acid and the enzyme was stopped after two minutes at 37° C. The PGE2 formed was measured by standard ELISA technology (Cayman Chemical).

COX-2 = target: T2, COX-2 (Ovis aries, UniProt P79208); assay: Assay for COX-2 activity (Ovine), PGE2 formation by ELISA; assay type: biochemical; conditions: for Selectivity: IC50 COX1 / IC50 COX2; for inhibition at 0.01 µM: read-out: COX-2 10 nM (% inhibition); for inhibition at 0.01 µM / COX-2 10 nM (% inhibition): 10 nM compound; for inhibition at 0.05 µM: read-out: COX-2 50 nM (% inhibition); for inhibition at 0.05 µM / COX-2 50 nM (% inhibition): 50 nM compound; for IC50: second number of cell COX1/COX2
T2 construct: host or cells: insect cells (membranes, CHAPS-solubilized)
T2 sequence (P79208 17-603): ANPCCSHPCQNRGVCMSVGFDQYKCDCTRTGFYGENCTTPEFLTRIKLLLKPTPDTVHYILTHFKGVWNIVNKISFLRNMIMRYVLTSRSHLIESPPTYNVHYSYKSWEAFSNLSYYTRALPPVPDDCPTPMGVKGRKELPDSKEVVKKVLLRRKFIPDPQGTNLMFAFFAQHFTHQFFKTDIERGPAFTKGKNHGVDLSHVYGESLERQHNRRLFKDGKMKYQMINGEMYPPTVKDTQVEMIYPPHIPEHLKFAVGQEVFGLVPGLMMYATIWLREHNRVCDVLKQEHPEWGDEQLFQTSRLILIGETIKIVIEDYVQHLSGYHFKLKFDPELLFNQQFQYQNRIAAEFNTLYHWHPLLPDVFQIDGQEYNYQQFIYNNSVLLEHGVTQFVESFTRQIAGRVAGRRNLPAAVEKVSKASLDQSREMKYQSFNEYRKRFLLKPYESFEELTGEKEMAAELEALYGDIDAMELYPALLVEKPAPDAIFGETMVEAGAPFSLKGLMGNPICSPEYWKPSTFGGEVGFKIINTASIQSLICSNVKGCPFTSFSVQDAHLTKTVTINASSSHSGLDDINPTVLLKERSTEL
Procedure: as §1

[1] = Pharmacokinetics after oral administration in rats; assay type: in vivo, Male Sprague Dawley rats; conditions: rat
Procedure: The animals are housed, fed and cared for according to the Guidelines of the […] Council on Animal Care. Male Sprague Dawley rats (250-300 g) are fasted overnight prior to each PO blood level study. The rats are placed in the restrainer one at a time and the box firmly secured. Compounds are prepared as required, in a standard dosing volume of 500 μL/250 g, and administered orally by passing a 16 gauge, 3″ gavaging needle into the stomach. Rats are catheterized at the carotid at least one day before drug administration and flushed with 30% PVP (400 U/mL of heparin) to prevent clotting in the tip. 250 μL blood samples are collected by unhooking the flush syringe and letting the blood flow freely in centrifuge tube at predetermined time points. The tubes should be centrifuged at 13,000 rpm for 10 min at 4° C. The plasma samples are collected in microcentrifuge tubes and stored immediately at −20° C. until analysis or analyzed immediately. Typical time points for determination of rat blood levels after PO dosing are: 30 min, 1 h, 3 h, 5 h, 7 h, 23 h, 25 h, 28 h, 31 h. A 100 μL aliquot of plasma sample is mixed with 150 μL of acetonitrile. After vortex and centrifuge, 200 μL of the supernatant is dried up under Speed Vac. The residue is reconstituted with 100 μL of methanol. After vortex and centrifuge again, 25 μL of supernatant is analyzed by C-18 HPLC column using UV detector. Quantitation is done relative to a clean blood sample spiked with a known quantity of drug.

[2] = test system: adjuvant-induced arthritis in rats; assay: Adjuvant-induced arthritis rat model, inhibition of paw swelling; assay type: in vivo, Male Lewis rats; conditions: oral, daily, days 8-15; paw volume day 15

Compound	inhibition at 0.01 µM (COX-1) [%]	Selectivity (COX-2)	inhibition at 0.01 µM (COX-2) [%]	inhibition at 0.05 µM (COX-2) [%]	IC50 (COX-2) [nM]	IC50 (COX-1) [nM]	inhibition at 0.05 µM (COX-1) [%]	COX-2 10 nM (% inhibition) (COX-2) [%]	COX-2 50 nM (% inhibition) (COX-2) [%]	half-life compared with Celecoxib (in words) [1]	COX-1 10 nM (% inhibition) (COX-1) [%]	COX-1 50 nM (% inhibition) (COX-1) [%]	selectivity for the inhibition of COX-2 over COX-1 (in words) (COX-2)	pharmacology (pharmacokinetic) profile (in words) [1]	potency in controlling inflammation (in words) [2]
Cc1onc(-c2ccccc2)c1-c1ccc(S(N)(=O)=O)cc1 [Valdecoxib, reference compound]	2	–	–	–	–	–	–	–	–	–	–	–	–	–	–
CS(=O)(=O)c1ccc(-n2cc(C(F)(F)F)nc2-c2nnc(-c3ccccc3)s2)cc1 [Example 44, 1-[4-(Methylsulfonyl)phenyl]-2-(2-phenyl-1,3,4-thiadiazol-5-yl)-4-(trifluoromethyl)-1H-imidazole]	30	12	95	100	2.3	27	45	–	–	–	–	–	–	–	–
N=C(Nc1ccc(S(N)(=O)=O)cc1)c1nnc(-c2ccccc2)s1 [Example 32, N-[4-(Aminosulfonyl)phenyl]-3-[2-(phenyl)-1,3,4-thiadiazol-5-yl]carboximidamide]	–	17	–	–	4.8	79	–	85	94	longer half-life	15	45	–	–	–
CS(=O)(=O)c1ccc(-n2cc(C(F)(F)F)nc2-c2nnc(Nc3ccccc3)s2)cc1 [Example 52, 1-[4-(Methylsulfonyl)phenyl]-2-[2-(N-anilino)-1,3,4-thiadiazol-5-yl]-4-(trifluoromethyl)-1H-imidazole]	–	12	–	–	5.1	62	–	98	–	–	31	–	–	–	–
NS(=O)(=O)c1ccc(-n2cc(C(F)(F)F)nc2-c2nnc(-c3ccccc3)s2)cc1 [Example 48, 1-[4-(Aminosulfonyl)phenyl]-2-[2-(phenyl)-1,3,4-thiadiazol-5-yl]-4-(trifluoromethyl)-1H-imidazole]	10	90	84	100	0.4	36	25	–	–	longer half-life	–	–	good selectivity	excellent pharmacology profile	good potency in controlling inflamation
N-[4-(Aminosulfonyl)phenyl]-3-[2-(4-fluorophenyl)-1,3,4-thiadiazol-5-yl]carboximidamide [Example 33]	–	11	–	–	3.3	36	–	84	100	longer half-life	23	52	–	–	–
